Laboratory results reported in patent US8653109B2, “Substituted bipyridine derivatives and their use as adenosine receptor ligands” (Bayer Intellectual Property GmbH, priority 2006, dated 2014).

Tests used:
Type in all cases: cell-based
[1] = target: T1, adenosine A1 receptor (Homo sapiens, UniProt P30542); assay: Indirect determination of adenosine agonism by way of gene expression (cAMP-dependent luciferase), A1 cells; conditions: CHO cells stably transfected with A1 receptor cDNA; 1 μM forskolin; concentration at which 50% of the luciferase answer is inhibited
T1 construct: expressed in transfected cells; host or cells: CHO (Chinese Hamster Ovary)
T1 sequence (P30542 1-326): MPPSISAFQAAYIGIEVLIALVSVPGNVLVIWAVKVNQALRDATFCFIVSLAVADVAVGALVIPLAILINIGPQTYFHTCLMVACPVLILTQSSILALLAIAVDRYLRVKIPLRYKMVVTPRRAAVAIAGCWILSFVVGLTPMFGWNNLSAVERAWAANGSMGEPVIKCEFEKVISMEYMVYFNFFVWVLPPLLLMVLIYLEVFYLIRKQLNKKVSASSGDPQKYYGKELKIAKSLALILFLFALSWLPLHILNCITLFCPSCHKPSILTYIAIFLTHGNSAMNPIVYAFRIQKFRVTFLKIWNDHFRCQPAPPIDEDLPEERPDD
From the text: (§1) B-1. Indirect Determination of the Adenosine Agonism by Way of Gene Expression
(§2) Cells of the CHO (Chinese Hamster Ovary) permanent cell line are transfected stably with the cDNA for the adenosine receptor subtypes A1, A2a and A2b. The adenosine A1 receptors are coupled to the adenylate cyclase by way of Gi proteins, while the adenosine A2a and A2b receptors are coupled by way of Gs proteins. In correspondence with this, the formation of cAMP in the cell is inhibited or stimulated, respectively. After that, expression of the luciferase is modulated by way of a cAMP-dependent promoter. The luciferase test is optimized, with the aim of high sensitivity and reproducibility, low variance and good suitability for implementation on a robot system, by varying several test parameters, such as cell density, duration of the growth phase and the test incubation, forskolin concentration and medium composition. The following test protocol is used for pharmacologically characterizing cells and for the robot-assisted substance screening:
(§3) The stock cultures are grown, at 37° C. and under 5% CO2, in DMEM/F12 medium containing 10% FCS (foetal calf serum) and in each case split 1:10 after 2-3 days. The test cultures are seeded in 384-well plates with 2000 cells per well and grown at 37° C. for approx. 48 hours. The medium is then replaced with a physiological sodium chloride solution (130 mM sodium chloride, 5 mM potassium chloride, 2 mM calcium chloride, 20 mM HEPES, 1 mM magnesium chloride hexahydrate, 5 mM sodium bicarbonate, pH 7.4). The substances to be tested, which are dissolved in DMSO, are pipetted into the test cultures (maximum final concentration of DMSO in the test mixture: 0.5%) in a dilution series of from 5×10^−11M to 3×10^−6M (final concentration). 10 minutes later, forskolin is added to the A1 cells and all the cultures are subsequently incubated at 37° C. for four hours. After that, 35 μl of a solution which is composed of 50% lysis reagent (30 mM disodium hydrogenphosphate, 10% glycerol, 3% TritonX100, 25 mM TrisHCl, 2 mM dithiotreitol (DTT), pH 7.8) and 50% luciferase substrate solution (2.5 mM ATP, 0.5 mM luciferin, 0.1 mM coenzyme A, 10 mM tricine, 1.35 mM magnesium sulphate, 15 mM DTT, pH 7.8) are added to the test cultures, which are shaken for approx. 1 minute and the luciferase activity is measured using a camera system. The EC50 values are determined, i.e., the concentrations at which 50% of the luciferase answer is inhibited in the case of the A1 cell, and, respectively, 50% of the maximum stimulation with the corresponding substance is achieved in the case of the A2b and A2a cells. […] Pharmacol., 357 (1998), 1-9).

[2] = target: T2, adenosine A2a receptor (Homo sapiens, UniProt P29274); assay: Indirect determination of adenosine agonism by way of gene expression (cAMP-dependent luciferase), A2a cells; conditions: CHO cells stably transfected with A2a receptor cDNA; 50% of the maximum stimulation of luciferase
T2 construct: expressed in transfected cells; host or cells: CHO (Chinese Hamster Ovary)
From the text: as §1, §2, §3

[3] = target: T3, adenosine A2b receptor (Homo sapiens, UniProt P29275); assay: Indirect determination of adenosine agonism by way of gene expression (cAMP-dependent luciferase), A2b cells; conditions: CHO cells stably transfected with A2b receptor cDNA; 50% of the maximum stimulation of luciferase
T3 construct: expressed in transfected cells; host or cells: CHO (Chinese Hamster Ovary)
T3 sequence (P29275 1-332): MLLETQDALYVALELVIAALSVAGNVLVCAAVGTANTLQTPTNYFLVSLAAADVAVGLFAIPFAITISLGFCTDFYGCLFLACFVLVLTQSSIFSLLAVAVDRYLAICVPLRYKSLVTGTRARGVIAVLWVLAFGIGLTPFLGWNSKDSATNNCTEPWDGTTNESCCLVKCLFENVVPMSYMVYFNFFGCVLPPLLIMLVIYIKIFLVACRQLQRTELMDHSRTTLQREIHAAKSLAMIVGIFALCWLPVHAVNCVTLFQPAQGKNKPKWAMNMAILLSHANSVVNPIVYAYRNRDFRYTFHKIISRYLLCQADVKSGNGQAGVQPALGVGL
From the text: as §1, §2, §3

T2 sequence (P29274 whole entry): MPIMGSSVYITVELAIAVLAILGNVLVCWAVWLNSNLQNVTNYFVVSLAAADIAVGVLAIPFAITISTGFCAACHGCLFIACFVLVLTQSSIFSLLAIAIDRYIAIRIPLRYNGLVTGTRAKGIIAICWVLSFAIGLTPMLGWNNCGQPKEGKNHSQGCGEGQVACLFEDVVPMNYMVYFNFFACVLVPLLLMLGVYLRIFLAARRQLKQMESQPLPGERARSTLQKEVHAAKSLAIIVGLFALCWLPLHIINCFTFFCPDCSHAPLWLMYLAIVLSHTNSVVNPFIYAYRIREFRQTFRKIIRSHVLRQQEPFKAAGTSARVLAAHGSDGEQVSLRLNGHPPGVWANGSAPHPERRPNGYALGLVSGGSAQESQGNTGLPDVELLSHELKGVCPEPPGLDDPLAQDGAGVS

Structure (SMILES)	EC50 [1]	EC50 [2]	EC50 [3]
Cc1cc(CSc2nc(N)c(C#N)c(-c3ccc(OCCO)nc3)c2C#N)nc(Nc2ccc(F)cc2)n1 [Example 21]	3.6 nM	> 3000 nM	> 3000 nM
N#Cc1c(N)nc(SCc2csc(Nc3ccc(F)c(Cl)c3)n2)c(C#N)c1-c1ccc(OCCO)nc1 [Example 1, 2′-Amino-6′-[({2-[(3-chloro-4-fluorophenyl)amino]-1,3-thiazol-4-yl}methyl)thio]-6-(2-hydroxyethoxy)-3,4′-bipyridine-3′,5′-dicarbonitrile]	0.8 nM	2180 nM	5.8 nM
N#Cc1c(N)nc(SCc2csc(Nc3cccc(F)c3)n2)c(C#N)c1-c1ccc(OCCO)nc1 [Example 5]	0.6 nM	190 nM	8.5 nM
N#Cc1c(N)nc(SCc2cscn2)c(C#N)c1-c1ccc(OCCO)nc1 [Example 13]	0.09 nM	21 nM	5.5 nM
N#Cc1c(N)nc(SCc2csc(Nc3ccc(F)cc3)n2)c(C#N)c1-c1ccc(OCCO)nc1 [Example 3]	0.2 nM	123 nM	3.7 nM
N#Cc1c(N)nc(SCc2ncon2)c(C#N)c1-c1ccc(OCCO)nc1 [Example 25]	4.1 nM	> 3000 nM	> 3000 nM
N#Cc1c(N)nc(SCc2csc(Nc3ccc(F)c(F)c3)n2)c(C#N)c1-c1ccc(OCCO)nc1 [Example 11]	0.4 nM	150 nM	5.7 nM
N#Cc1c(N)nc(SCc2cccc(Nc3ccncc3)n2)c(C#N)c1-c1ccc(OCCO)nc1 [Example 22]	0.6 nM	120 nM	117 nM
N#Cc1c(N)nc(SCc2csc(-c3ccc(Cl)cc3)n2)c(C#N)c1-c1ccc(OCCO)nc1 [Example 19, 2′-Amino-6′-({[2-(4-chlorophenyl)-1,3-thiazol-4-yl]methyl}thio)-6-(2-hydroxyethoxy)-3,4′-bipyridine-3′,5′-dicarbonitrile]	0.04 nM	663 nM	234 nM

Further lines, results first:

EC50 [1]	EC50 [2]	EC50 [3]	Structure (SMILES)
0.09 nM	355 nM	516 nM	N#Cc1c(N)nc(SCc2coc(-c3ccc(Cl)cc3)n2)c(C#N)c1-c1ccc(OC[C@@H](O)CO)nc1 [Example 42, 2′-Amino-6′-({[2-(4-chlorophenyl)-1,3-oxazol-4-yl]methyl}thio)-6-{[(2S)-2,3-dihydroxypropyl]-oxy}-3,4′-bipyridine-3′,5′-dicarbonitrile]
0.04 nM	266 nM	166 nM	N#Cc1c(NCCO)nc(SCc2csc(-c3ccc(Cl)cc3)n2)c(C#N)c1-c1ccc(OCCO)nc1 [Example 46]
0.09 nM	101 nM	235 nM	N#Cc1c(N)nc(SCc2coc(-c3ccc(Cl)cc3)n2)c(C#N)c1-c1ccc(OCCO)nc1 [Example 31]
0.04 nM	72 nM	185 nM	N#Cc1c(N)nc(SCc2coc(-c3ccc(Cl)cc3)n2)c(C#N)c1-c1ccc(OC[C@H](O)CO)nc1 [Example 43, 2′-Amino-6′-({[2-(4-chlorophenyl)-1,3-oxazol-4-yl]methyl}thio)-6-{[(2R)-2,3-dihydroxypropyl]-oxy}-3,4′-bipyridine-3′,5′-dicarbonitrile]
0.3 nM	1750 nM	1260 nM	Cc1oc(-c2ccc(Cl)cc2)nc1CSc1nc(N)c(C#N)c(-c2ccc(OCCO)nc2)c1C#N [Example 37]
0.08 nM	547 nM	95 nM	N#Cc1c(SCc2csc(-c3ccc(Cl)cc3)n2)nc(N2CCCC2)c(C#N)c1-c1ccc(OCCO)nc1 [Example 44, 2′-({[2-(4-Chlorophenyl)-1,3-thiazol-4-yl]methyl}thio)-6-(2-hydroxyethoxy)-6′-pyrrolidin-1-yl-3,4′-bipyridine-3′,5′-dicarbonitrile]
